SMILES strings stand for the structures.

In the assay the target is T1, HIF-PH2 (EGLN1) (Homo sapiens, UniProt Q9GZT9).
T1 construct: made in house; host or cells: insect Hi5 cells
The assay is described as follows: HIF-PH assay (14CO2 capture, peptide-dependent turnover). It counts as biochemical. To be noted: for inhibition at 22.22 µM: Concentration 22.22 μM. An excerpt: Ketoglutaric acid α-[1-^14C]-sodium salt, alpha-ketoglutaric acid sodium salt, and HPLC purified peptide may be obtained from commercial sources, e.g., Perkin-Elmer (Wellesley Mass.), Sigma-Aldrich, and SynPep Corp. (Dublin Calif.), respectively. Peptides for use in the assay may be fragments of HIFα as described above or as disclosed in International Publication WO 2005/118836, incorporated by reference herein. For example, a HLF peptide for use in the HIF-PH assay is [methoxycoumarin]-DLDLEALAPYIPADDDFQL-amide. HIF-PH, e.g., HIF-PH2 (EGLN1), can be expressed in, e.g., insect Hi5 cells, and partially purified, e.g., through a SP ion exchange chromatography column. Enzyme activity is determined by capturing ^14CO2 using an assay described by Kivirikko and Myllyla (1982, Methods Enzymol. 82:245-304). Assay reactions contain 50 mM HEPES (pH 7.4), 100 μM α-ketoglutaric acid sodium salt, 0.30 μCi/mL ketoglutaric acid α-[1-^14C]-sodium salt, 40 μM FeSO4, 1 mM ascorbate, 1541.8 units/mL Catalase, with or without 50 μM peptide substrate and various concentrations of compound of the invention. Reactions are initiated by addition of HIF-PH enzyme.
The peptide-dependent percent turnover is calculated by subtracting percent turnover in the absence of peptide from percent turnover in the presence of substrate peptide. Percent inhibition and IC50 are calculated using peptide-dependent percent turnover at given inhibitor concentrations. Calculation of IC50 values for each inhibitor is conducted using GraFit software (Erithacus Software Ltd., Surrey UK). […]

T1 sequence (Q9GZT9 whole entry, species assumed): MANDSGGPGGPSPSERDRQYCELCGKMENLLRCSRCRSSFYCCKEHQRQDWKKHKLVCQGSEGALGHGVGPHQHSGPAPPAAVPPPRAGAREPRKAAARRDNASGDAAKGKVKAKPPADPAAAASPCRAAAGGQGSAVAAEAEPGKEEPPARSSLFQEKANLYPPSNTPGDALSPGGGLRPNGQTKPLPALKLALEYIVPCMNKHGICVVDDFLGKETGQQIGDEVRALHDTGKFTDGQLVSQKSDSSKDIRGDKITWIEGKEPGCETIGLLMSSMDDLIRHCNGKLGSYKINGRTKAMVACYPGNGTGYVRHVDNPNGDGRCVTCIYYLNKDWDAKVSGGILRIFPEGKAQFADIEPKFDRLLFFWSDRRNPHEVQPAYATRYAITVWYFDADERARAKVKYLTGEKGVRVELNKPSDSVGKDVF

In the case of `O=C(O)CNC(=O)c1ncc2nc(-c3ccccc3)oc2c1O` [Example 1, [(7-Hydroxy-2-phenyl-oxazolo[4,5-c]pyridine-6-carbonyl)-amino]-acetic acid], the inhibition at 200 µM (Concentration 200.00 μM) is 99.8%.
In the case of `O=C(O)CNC(=O)c1ncc2nc(-c3ccc(F)cc3)oc2c1O` [Example 2, {[2-(4-Fluoro-phenyl)-7-hydroxy-oxazolo[4,5-c]pyridine-6-carbonyl]-amino}-acetic acid], the inhibition at 200 µM (Concentration 200.00 μM) was 100%.
Still for that read-out and setting: in the case of `Cc1nc(C(=O)NCC(=O)O)c(O)c2oc(-c3ccccc3)nc12` [Example 3, [(7-Hydroxy-4-methyl-2-phenyl-oxazolo[4,5-c]pyridine-6-carbonyl)-amino]-acetic acid] it was 48.9%.
The compound `CCc1nc(C(=O)NCC(=O)O)c(O)c2oc(-c3ccccc3)nc12` [Example 4, [(4-Ethyl-7-hydroxy-2-phenyl-oxazolo[4,5-c]pyridine-6-carbonyl)-amino]-acetic acid] registered an inhibition at 200 µM (Concentration 200.00 μM) of 99.2%.
Still for that read-out and setting: then `O=C(O)CNC(=O)c1nc(-c2ccccc2)c2nc(-c3ccccc3)oc2c1O` [Example 5, [(7-Hydroxy-2,4-diphenyl-oxazolo[4,5-c]pyridine-6-carbonyl)-amino]-acetic acid], with 98.7%.
The same measure, in the same setting: in the case of `O=C(O)CNC(=O)c1nc(C#Cc2ccccc2)c2nc(-c3ccccc3)oc2c1O` [Example 6, [(7-Hydroxy-2-phenyl-4-phenylethynyl-oxazolo[4,5-c]pyridine-6-carbonyl)-amino]-acetic acid] it was 99%; in that of `CCCCc1nc(C(=O)NCC(=O)O)c(O)c2oc(-c3ccccc3)nc12` [Example 7, [(4-Butyl-7-hydroxy-2-phenyl-oxazolo[4,5-c]pyridine-6-carbonyl)-amino]-acetic acid], 99.5%.
The same measure, in the same setting: then `O=C(O)CNC(=O)c1nc(-c2ccc(F)cc2)c2nc(-c3ccccc3)oc2c1O` [Example 8, {[4-(4-Fluoro-phenyl)-7-hydroxy-2-phenyl-oxazolo[4,5-c]pyridine-6-carbonyl]-amino}-acetic acid], with 97.3%; and `O=C(O)CNC(=O)c1ncc2oc(-c3ccccc3)nc2c1O` [Example 9, [(7-Hydroxy-2-phenyl-oxazolo[5,4-c]pyridine-6-carbonyl)-amino]-acetic acid], with 98.6%.
`COc1cccc(-c2nc(C(=O)NCC(=O)O)c(O)c3oc(-c4ccccc4)nc23)c1` [Example 10, {[7-Hydroxy-4-(3-methoxy-phenyl)-2-phenyl-oxazolo[4,5-c]pyridine-6-carbonyl]-amino}-acetic acid] came in with an inhibition at 200 µM (Concentration 200.00 μM) of 99%.
Same read-out and setting: then `O=C(O)CNC(=O)c1ncc2onc(-c3ccccc3)c2c1O` [Example 11, [(4-Hydroxy-3-phenyl-isoxazolo[5,4-c]pyridine-5-carbonyl)-amino]-acetic acid], with 99.9%; and `Cc1nc(C(=O)NCC(=O)O)c(O)c2c(-c3ccccc3)noc12` [Example 12, [(4-Hydroxy-7-methyl-3-phenyl-isoxazolo[5,4-c]pyridine-5-carbonyl)-amino]-acetic acid], with 98.6%.
Compound `O=C(O)CNC(=O)c1nc(-c2ccccc2)c2onc(-c3ccccc3)c2c1O` [Example 13, [(4-Hydroxy-3,7-diphenyl-isoxazolo[5,4-c]pyridine-5-carbonyl)-amino]-acetic acid] came in with an inhibition at 22.22 µM of 98.4%.
On the same count and under the same terms, in the case of `O=C(O)CNC(=O)c1ncc2onc(-c3ccc(Cl)cc3)c2c1O` [Example 14, {[3-(4-Chloro-phenyl)-4-hydroxy-isoxazolo[5,4-c]pyridine-5-carbonyl]-amino}-acetic acid] it was 98.8%; in that of `O=C(O)CNC(=O)c1ncc2onc(-c3ccccc3Cl)c2c1O` [Example 15, {[3-(2-Chloro-phenyl)-4-hydroxy-isoxazolo[5,4-c]pyridine-5-carbonyl]-amino}-acetic acid], 95.7%; in that of `COc1ccc(-c2noc3cnc(C(=O)NCC(=O)O)c(O)c23)cc1` [Example 16, {[4-Hydroxy-3-(4-methoxy-phenyl)-isoxazolo[5,4-c]pyridine-5-carbonyl]-amino}-acetic acid], 97.9%.
Same read-out and setting: in the case of `O=C(O)CNC(=O)c1ncc2onc(-c3cccc(Cl)c3)c2c1O` [Example 17, {[3-(3-Chloro-phenyl)-4-hydroxy-isoxazolo[5,4-c]pyridine-5-carbonyl]-amino}-acetic acid] it was 98.6%; in that of `O=C(O)CNC(=O)c1ncc2onc(-c3c(F)cccc3Cl)c2c1O` [Example 18, {[3-(2-Chloro-6-fluoro-phenyl)-4-hydroxy-isoxazolo[5,4-c]pyridine-5-carbonyl]-amino}-acetic acid], 88.2%; in that of `O=C(O)CNC(=O)c1ncc2onc(-c3ccc(F)cc3)c2c1O` [Example 19, {[3-(4-Fluoro-phenyl)-4-hydroxy-isoxazolo[5,4-c]pyridine-5-carbonyl]-amino}-acetic acid], 97.9%.
On to `N#Cc1nc(C(=O)NCC(=O)O)c(O)c2c(-c3ccccc3)noc12` [Example 20, [(7-Cyano-4-hydroxy-3-phenyl-isoxazolo[5,4-c]pyridine-5-carbonyl)-amino]-acetic acid], for which 22.22 µM produced 98.5% inhibition.
For the compound `Cc1nc(C(=O)NCC(=O)O)c(O)c2c(-c3ccc(Cl)cc3)noc12` [Example 21, {[3-(4-Chloro-phenyl)-4-hydroxy-7-methyl-isoxazolo[5,4-c]pyridine-5-carbonyl]-amino}-acetic acid], for the setting “Concentration 200.00 μM”, the inhibition at 200 µM came to 99.4%.
With `O=C(O)CNC(=O)c1nc(Br)c2onc(-c3ccc(F)cc3)c2c1O` [Example 22, {[7-Bromo-3-(4-fluoro-phenyl)-4-hydroxy-isoxazolo[5,4-c]pyridine-5-carbonyl]-amino}-acetic acid], the inhibition at 22.22 µM is 98.7%.
The same measure, in the same setting: in the case of `N#Cc1nc(C(=O)NCC(=O)O)c(O)c2c(-c3ccc(F)cc3)noc12` [Example 23, {[7-Cyano-3-(4-fluoro-phenyl)-4-hydroxy-isoxazolo[5,4-c]pyridine-5-carbonyl]-amino}-acetic acid] it was 98.2%; in that of `O=C(O)CNC(=O)c1nc(Br)c2onc(-c3ccc(Cl)cc3)c2c1O` [Example 24, {[7-Bromo-3-(4-chloro-phenyl)-4-hydroxy-isoxazolo[5,4-c]pyridine-5-carbonyl]-amino}-acetic acid], 100%.
Still for that read-out and setting: in the case of `N#Cc1nc(C(=O)NCC(=O)O)c(O)c2c(-c3ccc(Cl)cc3)noc12` [Example 25, {[3-(4-Chloro-phenyl)-7-cyano-4-hydroxy-isoxazolo[5,4-c]pyridine-5-carbonyl]-amino}-acetic acid] it was 98.7%; in that of `Cc1nc(C(=O)NCC(=O)O)c(O)c2c(-c3ccc(F)cc3)noc12` [Example 26, {[3-(4-Fluoro-phenyl)-4-hydroxy-7-methyl-isoxazolo[5,4-c]pyridine-5-carbonyl]-amino}-acetic acid], 93.8%.
For the compound `O=C(O)CNC(=O)c1nc(NCC(=O)O)c2onc(-c3cccc(Cl)c3)c2c1O` [Example 27, {[3-(3-Chloro-phenyl)-7-(ethanic acid-2-yl)amino-4-hydroxy-isoxazolo[5,4-c]pyridine-5-carbonyl]-amino}-acetic acid], for the setting “Concentration 200.00 μM”, the “% Inhibition (HIF-PH2)” value is 96.45%.
The compound `C#Cc1nc(C(=O)NCC(=O)O)c(O)c2c(-c3ccc(Cl)cc3)noc12` [Example 28, {[3-(4-Chloro-phenyl)-7-ethynyl-4-hydroxy-isoxazolo[5,4-c]pyridine-5-carbonyl]-amino}-acetic acid] displayed an inhibition at 22.22 µM of 96.7%.
Still for that read-out and setting: in the case of `O=C(O)CNC(=O)c1ncc2onc(-c3ccc(-c4ccccc4)cc3)c2c1O` [Example 29, [(3-Biphenyl-4-yl-4-hydroxy-isoxazolo[5,4-c]pyridine-5-carbonyl)-amino]-acetic acid] it was 99.4%.
With `C[C@H](NC(=O)c1ncc2onc(-c3ccccc3)c2c1O)C(=O)O` [Example 30, 2-[(4-Hydroxy-3-phenyl-isoxazolo[5,4-c]pyridine-5-carbonyl)-amino]-(S)-propionic acid], for the setting “Concentration 200.00 μM”, testing at 200 µM gave an inhibition of 100%.
Same read-out and setting: in the case of `C[C@@H](NC(=O)c1ncc2onc(-c3ccccc3)c2c1O)C(=O)O` [Example 31, 2-[(4-Hydroxy-3-phenyl-isoxazolo[5,4-c]pyridine-5-carbonyl)-amino]-(R)-propionic acid] it was 61%.
On to `O=C(O)CNC(=O)c1ncc2onc(-c3cccc(OC(F)(F)F)c3)c2c1O` [Example 32, {[4-Hydroxy-3-(3-trifluoromethoxy-phenyl)-isoxazolo[5,4-c]pyridine-5-carbonyl]-amino}-acetic acid], for which the inhibition at 22.22 µM worked out at 99.1%.
Same read-out and setting: then `O=C(O)CNC(=O)c1nc(-c2cccnc2)c2onc(-c3ccccc3)c2c1O` [Example 33, [(4-Hydroxy-3-phenyl-7-pyridin-3-yl-isoxazolo[5,4-c]pyridine-5-carbonyl)-amino]-acetic acid], with 99.6%.

These data come from patent publication US8269008B2, “Oxazolopyridine and isoxazolopyridine derivatives for use in the treatment of HIF-mediated conditions” (FibroGen, Inc., priority 2007, dated 2012).
